Measured values reported in ChEMBL document CHEMBL1145821, “Dihydrofolate reductase mutant with exceptional resistance to methotrexate but not to trimetrexate” (J Med Chem, 2003).
pKi: −log10 of the molar value.

Columns and labels:
Dihydrofolate reductase [1] = target: T1, Dihydrofolate reductase (Mus musculus, UniProt P00375); test: Combined effect of active site mutation F31A and F34A on inhibitory effect for F31A/F34A murine dihydrofolate reductase (DHFR)
Dihydrofolate reductase [2] = target: T2, Dihydrofolate reductase (Mus musculus, UniProt P00375); test: Inhibitory constant for F31A/F34A murine dihydrofolate reductase (DHFR)
T2 sequence (P00375 whole entry): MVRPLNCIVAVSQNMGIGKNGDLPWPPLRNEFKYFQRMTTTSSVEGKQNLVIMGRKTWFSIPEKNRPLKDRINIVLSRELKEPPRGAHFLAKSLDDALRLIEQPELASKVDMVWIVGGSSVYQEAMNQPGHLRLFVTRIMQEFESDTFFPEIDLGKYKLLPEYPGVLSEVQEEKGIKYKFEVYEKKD

[3] = target: T3, Dihydrofolate reductase (Mus musculus) (UniProt P00375)
T3 sequence (whole entry): T2 sequence (P00375 whole entry)

Dihydrofolate reductase [4] = target: T1, Dihydrofolate reductase; test: Combined effect of active site mutation F31A and F34A on inhibitory effect for murine Wild-type dihydrofolate reductase (DHFR)
Dihydrofolate reductase [5] = target: T2, Dihydrofolate reductase; test: Inhibitory constant for murine Wild-type dihydrofolate reductase (DHFR)

Row | Ki·kcat/Km (Dihydrofolate reductase [1]) | pKi (Dihydrofolate reductase [2]) | Kimut/Kiwt [3] | Ki·kcat/Km (Dihydrofolate reductase [4]) | pKi (Dihydrofolate reductase [5]) | SMILES
1 | 0.112 s⁻¹ | 6.67 | 4410 | 0.00126 s⁻¹ | – | CN(Cc1cnc2nc(N)nc(N)c2n1)c1ccc(C(=O)NC(CCC(=O)NCCCCCCCCCCCCNC(=O)CCC(NC(=O)c2ccc(N(C)Cc3cnc4nc(N)nc(N)c4n3)cc2)C(=O)O)C(=O)O)cc1 (centres undefined)
2 | 0.00043 s⁻¹ | 9.09 | 13.5 | 0.00158 s⁻¹ | 10.22 | COc1cc(NCc2ccc3nc(N)nc(N)c3c2C)cc(OC)c1OC [TRIMETREXATE]
